The structures appear in SMILES notation.

Common to all, as to type: biochemical
For one assay, the target named is T1, human Yes1 enzyme (Homo sapiens, UniProt P07947).
T1 construct: made in house
Kind of assay: Yes1 enzyme inhibitory activity (time-resolved fluorometry, biotinylated peptide phosphorylation). The note with it: biotinylated peptide phosphorylation, read-out: YES_IC50. Summed up:
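Inhibition was expressed against a compound-free control to give IC50, using TR-FRET read-out (Eu-cryptate anti-pTyr antibody, streptavidin-XL665).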

In another assay the target is T2, human Src enzyme (Homo sapiens, UniProt P12931).
T2 construct: purchased Carna Biosciences, Inc. 08-173
Kind of assay: Src enzyme inhibitory activity (time-resolved fluorometry, biotinylated peptide phosphorylation). The note with it: biotinylated peptide phosphorylation, read-out: SRC_IC50. A digest of the protocol: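 Compounds were tested for blocking tyrosine phosphorylation of a biotinylated peptide substrate by recombinant human Src. Phosphorylated product was quantified by time-resolved fluorometry using europium cryptate and XL665 conjugates, and IC50 was calculated against the compound-free control.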

For a further assay, the target named is T3, human Lck enzyme (Homo sapiens, UniProt P06239).
T3 construct: purchased Carna Biosciences, Inc. 08-170
Kind of assay: Lck enzyme inhibitory activity (time-resolved fluorometry, biotinylated peptide phosphorylation). The conditions noted are these: biotinylated peptide phosphorylation, read-out: LCK_IC50. Summed up: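 Readout pairs a europium cryptate-labelled anti-phosphotyrosine antibody with XL665-streptavidin, measured by time-resolved fluorescence. IC50 derived from percent inhibition against untreated controls.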

T2 sequence (P12931 whole entry): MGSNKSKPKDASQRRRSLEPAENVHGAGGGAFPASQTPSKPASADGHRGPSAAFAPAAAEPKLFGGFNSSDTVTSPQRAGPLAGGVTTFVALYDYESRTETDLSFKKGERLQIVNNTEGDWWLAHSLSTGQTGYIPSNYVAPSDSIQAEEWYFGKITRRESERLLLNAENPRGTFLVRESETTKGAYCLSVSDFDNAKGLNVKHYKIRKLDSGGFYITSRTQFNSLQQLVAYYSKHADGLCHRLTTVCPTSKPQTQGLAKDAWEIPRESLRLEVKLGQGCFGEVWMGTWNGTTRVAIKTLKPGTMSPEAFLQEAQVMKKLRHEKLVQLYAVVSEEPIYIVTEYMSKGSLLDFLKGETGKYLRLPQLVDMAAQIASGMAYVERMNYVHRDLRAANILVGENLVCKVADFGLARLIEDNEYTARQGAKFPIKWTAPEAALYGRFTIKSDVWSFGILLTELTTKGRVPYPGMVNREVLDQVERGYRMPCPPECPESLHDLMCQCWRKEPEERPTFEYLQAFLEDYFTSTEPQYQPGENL
T1 sequence (P07947 whole entry): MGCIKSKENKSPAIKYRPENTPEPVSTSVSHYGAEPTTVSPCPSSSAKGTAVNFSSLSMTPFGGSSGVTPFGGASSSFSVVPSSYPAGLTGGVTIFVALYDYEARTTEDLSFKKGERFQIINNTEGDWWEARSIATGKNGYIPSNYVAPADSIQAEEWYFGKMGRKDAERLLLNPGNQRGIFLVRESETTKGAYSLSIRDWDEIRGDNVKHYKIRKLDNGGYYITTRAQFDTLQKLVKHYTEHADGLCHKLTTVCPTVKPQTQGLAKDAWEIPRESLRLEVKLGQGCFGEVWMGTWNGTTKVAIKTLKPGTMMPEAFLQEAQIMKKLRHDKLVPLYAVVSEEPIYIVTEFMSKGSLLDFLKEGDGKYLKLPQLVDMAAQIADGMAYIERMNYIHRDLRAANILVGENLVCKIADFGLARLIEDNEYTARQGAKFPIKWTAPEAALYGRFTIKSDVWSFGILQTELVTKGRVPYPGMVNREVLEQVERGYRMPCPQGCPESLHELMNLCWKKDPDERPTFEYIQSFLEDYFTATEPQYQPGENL
T3 sequence (P06239 whole entry): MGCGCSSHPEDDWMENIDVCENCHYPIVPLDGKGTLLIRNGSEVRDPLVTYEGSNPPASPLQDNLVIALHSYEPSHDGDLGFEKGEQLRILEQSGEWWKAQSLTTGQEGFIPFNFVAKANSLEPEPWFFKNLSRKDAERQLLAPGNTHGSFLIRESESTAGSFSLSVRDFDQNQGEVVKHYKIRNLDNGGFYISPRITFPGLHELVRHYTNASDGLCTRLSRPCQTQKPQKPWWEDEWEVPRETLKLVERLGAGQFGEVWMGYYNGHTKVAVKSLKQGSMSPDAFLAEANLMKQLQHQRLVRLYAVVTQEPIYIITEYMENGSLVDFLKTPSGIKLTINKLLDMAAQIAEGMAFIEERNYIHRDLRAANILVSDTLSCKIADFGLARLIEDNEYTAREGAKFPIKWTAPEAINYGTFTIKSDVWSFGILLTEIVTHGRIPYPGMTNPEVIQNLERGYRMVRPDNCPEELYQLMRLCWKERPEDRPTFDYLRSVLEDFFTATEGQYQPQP

For the compound `COc1cccc(S(=O)(=O)Nc2cc3[nH]c(C(=O)c4cnn(-c5ccc(Oc6ccccc6F)cc5C)c4N)cc3cc2OCC(F)F)c1` [Example 5-1-414, N-[2-[5-amino-1-[4-(2-fluorophenoxy)-2-methylphenyl]pyrazole-4-carbonyl]-5-(2,2-difluoroethoxy)-1H-indol-6-yl]-3-methoxybenzenesulfonamide], the IC50 at human Yes1 enzyme worked out at 5.3 nM; at human Src enzyme it was 330 nM; at human Lck enzyme, 110 nM.
`Cc1cc(Oc2ccccc2F)ccc1-n1ncc(C(=O)c2cc3cc(OCC(F)F)c(NS(=O)(=O)c4cc(F)cc(F)c4)cc3[nH]2)c1N` [Example 5-1-415, N-[2-[5-amino-1-[4-(2-fluorophenoxy)-2-methylphenyl]pyrazole-4-carbonyl]-5-(2,2-difluoroethoxy)-1H-indol-6-yl]-3,5-difluorobenzenesulfonamide]: the figures for the IC50 at human Yes1 enzyme, at human Src enzyme and on human Lck enzyme were 5.9 nM, 280 nM and 110 nM, respectively.
As to `Cc1cc(Oc2ccccc2F)ccc1-n1ncc(C(=O)c2cc3cc(OCC(F)F)c(NS(=O)(=O)c4cccc(C#N)c4)cc3[nH]2)c1N` [Example 5-1-416, N-[2-[5-amino-1-[4-(2-fluorophenoxy)-2-methylphenyl]pyrazole-4-carbonyl]-5-(2,2-difluoroethoxy)-1H-indol-6-yl]-3-cyanobenzenesulfonamide], the results for the IC50 at human Yes1 enzyme, at human Src enzyme and at human Lck enzyme were 3.4 nM, 210 nM and 58 nM, respectively.
On the same counts, the results for `Cc1cc(Oc2ccccc2F)ccc1-n1ncc(C(=O)c2cc3cc(OCC(F)F)c(NS(=O)(=O)c4cccc(Cl)c4)cc3[nH]2)c1N` [Example 5-1-417, N-[2-[5-amino-1-[4-(2-fluorophenoxy)-2-methylphenyl]pyrazole-4-carbonyl]-5-(2,2-difluoroethoxy)-1H-indol-6-yl]-3-chlorobenzenesulfonamide] are 5.8 nM, 240 nM and 130 nM.
For the compound `Cc1cc(Oc2ccccc2F)ccc1-n1ncc(C(=O)c2cc3cc(OCC(F)F)c(NS(=O)(=O)c4cccnc4)cc3[nH]2)c1N` [Example 5-1-418, N-[2-[5-amino-1-[4-(2-fluorophenoxy)-2-methylphenyl]pyrazole-4-carbonyl]-5-(2,2-difluoroethoxy)-1H-indol-6-yl]pyridine-3-sulfonamide], the IC50 stood at 1.4 nM at human Yes1 enzyme, 78 nM on human Src enzyme and 21 nM at human Lck enzyme.
For the compound `COc1cccc(S(=O)(=O)Nc2cc3[nH]c(C(=O)c4cnn(-c5cnc(Oc6ccccc6F)cc5C)c4N)cc3cc2OCC(F)F)c1` [Example 5-1-419, N-[2-[5-amino-1-[6-(2-fluorophenoxy)-4-methylpyridin-3-yl]pyrazole-4-carbonyl]-5-(2,2-difluoroethoxy)-1H-indol-6-yl]-3-methoxybenzenesulfonamide], the IC50 at human Yes1 enzyme was determined as 5.6 nM; on human Src enzyme, 790 nM; at human Lck enzyme, 220 nM.
As to `Cc1cc(Oc2ccccc2F)ncc1-n1ncc(C(=O)c2cc3cc(OCC(F)F)c(NS(=O)(=O)c4cc(F)cc(F)c4)cc3[nH]2)c1N` [Example 5-1-420, N-[2-[5-amino-1-[6-(2-fluorophenoxy)-4-methylpyridin-3-yl]pyrazole-4-carbonyl]-5-(2,2-difluoroethoxy)-1H-indol-6-yl]-3,5-difluorobenzenesulfonamide], the IC50 at human Yes1 enzyme came to 6.3 nM; on human Src enzyme, 600 nM; on human Lck enzyme, 160 nM.
Take `Cc1cc(Oc2ccccc2F)ncc1-n1ncc(C(=O)c2cc3cc(F)c(N4CC(C)(C)NS4(=O)=O)cc3[nH]2)c1N` [Example 5-1-421, [5-amino-1-[6-(2-fluorophenoxy)-4-methylpyridin-3-yl]pyrazol-4-yl]-[6-(4,4-dimethyl-1,1-dioxo-1,2,5-thiadiazolidin-2-yl)-5-fluoro-1H-indol-2-yl]methanone]: the IC50 came to 1.1 nM on human Yes1 enzyme, 84 nM on human Src enzyme and 17 nM at human Lck enzyme.
As to `Cc1cc(Oc2ccccc2F)ncc1-n1ncc(C(=O)c2cc3cc(OCC(F)F)c(NS(=O)(=O)c4cccc(C#N)c4)cc3[nH]2)c1N` [Example 5-1-422, N-[2-[5-amino-1-[6-(2-fluoropheooxy)-4-methylpyridin-3-yl]pyrazole-4-carbonyl]-5-(2,2-difluoroethoxy)-1H-indol-6-yl]-3-cyanobenzenesulfonamide], the IC50 on human Yes1 enzyme came out at 1.7 nM; at human Src enzyme, 250 nM; on human Lck enzyme, 91 nM.
In the case of `Cc1cc(Oc2ccccc2F)ccc1-n1ncc(C(=O)c2cc3cc(OC(F)F)c(N4CC5(CCCC5)NS4(=O)=O)cc3[nH]2)c1N` [Example 5-1-423, [5-amino-1-[4-(2-fluorophenoxy)-2-methylphenyl]pyrazol-4-yl]-[5-(difluoromethoxy)-6-(2,2-dioxo-2λ6-thia-1,3-diazaspiro[4.4]nonan-3-yl)-1H-indol-2-yl]methanone], the IC50 was 4 nM on human Yes1 enzyme, 190 nM at human Src enzyme and 61 nM at human Lck enzyme.
On to `Cc1cc(Oc2ccccc2F)ncc1-n1ncc(C(=O)c2cc3cc(OCC(F)F)c(NS(=O)(=O)c4cccc(Cl)c4)cc3[nH]2)c1N` [Example 5-1-424, N-[2-[5-amino-1-[6-(2-fluorophenoxy)-4-methylpyridin-3-yl]pyrazole-4-carbonyl]-5-(2,2-difluoroethoxy)-1H-indol-6-yl]-3-chlorobenzenesulfonamide], for which the IC50 on human Yes1 enzyme amounted to 5.6 nM; at human Src enzyme, 480 nM; on human Lck enzyme it was 200 nM.
Take `Cc1cc(Oc2ccccc2F)ncc1-n1ncc(C(=O)c2cc3cc(OCC(F)F)c(NS(=O)(=O)c4cccnc4)cc3[nH]2)c1N` [Example 5-1-425, N-[2-[5-amino-1-[6-(2-fluorophenoxy)-4-methylpyridin-3-yl]pyrazole-4-carbonyl]-5-(2,2-difluoroethoxy)-1H-indol-6-yl]pyridine-3-sulfonamide]: the results for the IC50 on human Yes1 enzyme, at human Src enzyme and at human Lck enzyme were 1.5 nM, 95 nM and 39 nM, respectively.
In the case of `Cc1cc(Oc2ccccc2F)ccc1-n1ncc(C(=O)c2cc3cc(C4CC4)c(NS(=O)(=O)CCCF)cc3[nH]2)c1N` [Example 5-1-426, N-[2-[5-amino-1-[4-(2-fluorophenoxy)-2-methylphenyl]pyrazole-4-carbonyl]-5-cyclopropyl-1H-indol-6-yl]-3-fluoropropane-1-sulfonamide], the values for the IC50 on human Yes1 enzyme, on human Src enzyme and at human Lck enzyme were 2 nM, 95 nM and 36 nM, respectively.
As for `Cc1cc(Oc2c(F)cccc2F)ncc1-n1ncc(C(=O)c2cc3cc(C4CC4)c(NS(=O)(=O)CCCF)cc3[nH]2)c1N` [Example 5-1-427, N-[2-[5-amino-1-[6-(2,6-difluorophenoxy)-4-methylpyridin-3-yl]pyrazole-4-carbonyl]-5-cyclopropyl-1H-indol-6-yl]-3-fluoropropane-1-sulfonamide], the IC50 on human Yes1 enzyme was 3.8 nM; at human Src enzyme, 170 nM; at human Lck enzyme, 43 nM.
As for `Cc1cc(Oc2ccccc2F)ncc1-n1ncc(C(=O)c2cc3cc(C4CC4)c(NS(=O)(=O)CCCF)cc3[nH]2)c1N` [Example 5-1-428, N-[2-[5-amino-1-[6-(2-fluorophenoxy)-4-methylpyridin-3-yl]pyrazole-4-carbonyl]-5-cyolopropyl-1H-indol-6-yl]-3-fluoropropane-1-sulfonamide], the IC50 was 3.1 nM on human Yes1 enzyme, 170 nM at human Src enzyme and 46 nM on human Lck enzyme.
Turning to `Cc1cc2cc(C(=O)c3cnn(-c4cnc(Oc5c(F)cccc5F)cc4C)c3N)[nH]c2cc1N1C(=O)NC(C)(C(F)(F)F)C1=O` (stereo not drawn) [Example 5-1-429, 3-[2-[5-amino-1-[6-(2,6-difluorophenoxy)-4-methylpyridin-3-yl]pyrazole-4-carbonyl]-5-methyl-1H-indol-6-yl]-5-methyl-5-(trlfluoromethyl)imidazolidine-2,4-dione], the IC50 came out at 7.5 nM at human Yes1 enzyme, 190 nM at human Src enzyme and 25 nM at human Lck enzyme.
Turning to `Cc1cc(Oc2c(F)cccc2F)ncc1-n1ncc(C(=O)c2cc3cc(F)c(N4C(=O)N[C@@H](Cc5ccccc5)C4=O)cc3[nH]2)c1N` [Example 5-1-430, (5S)-3-[2-[5-amino-1-[6-(2,6-difluorophenoxy)-4-methylpyridin-3-yl]pyrazole-4-carbonyl]-5-fluoro-1H-indol-6-yl]-5-benzylimidazolidine-2,4-dione], the IC50 at human Yes1 enzyme was 8.4 nM; at human Src enzyme, 280 nM; on human Lck enzyme, 37 nM.
`Cc1cc(Oc2c(F)cccc2F)ncc1-n1ncc(C(=O)c2cc3cc(F)c(N4C(=O)N[C@@H](C(C)C)C4=O)cc3[nH]2)c1N` [Example 5-1-431, (5S)-3-[2-[5-amino-1-[6-(2,6-difluorophenoxy)-4-methylpyridin-3-yl]pyrazole-4-carbonyl]-5-fluoro-1H-indol-6-yl]-5-propan-2-ylimidazolidine-2,4-dione]: the IC50 came to 4.9 nM at human Yes1 enzyme, 190 nM on human Src enzyme and 20 nM on human Lck enzyme.
As to `Cc1cc(Oc2c(F)cccc2F)ncc1-n1ncc(C(=O)c2cc3cc(F)c(N4C(=O)[C@@H]5CCCN5C4=O)cc3[nH]2)c1N` [Example 5-1-432, (7aS)-2-[2-[5-amino-1-[6-(2,6-difluorophenoxy)-4-methylpyridin-3-yl]pyrazole-4-carbonyl]-5-fluoro-1H-indol-6-yl]-5,6,7,7a-tetrahydropyrrolo[1,2-c]imidazole-1,3-dione], the values for the IC50 at human Yes1 enzyme, on human Src enzyme and on human Lck enzyme were 3.8 nM, 96 nM and 7.7 nM, respectively.

The values are drawn from patent US10479780B2, “Aminopyrazole derivatives” (Chugai Seiyaku Kabushiki Kaisha, priority 2015, dated 2019).
